According to ChEMBL document CHEMBL1201862, “PubChem BioAssay data set” (2004):
Activity calls are given as the source filed them.

Experiments:
[1] = target: T1, Probable nicotinate-nucleotide adenylyltransferase (Staphylococcus aureus (strain N315), UniProt P65502); assay type: functional, Staphylococcus aureus subsp. aureus N315; details: read-out: IC50_Mean;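 on IC50 Mean: confirmatory dose-response retesting of NadD inhibitor hits first found in an ultra-high-throughput screen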
[2] = target: T1, Probable nicotinate-nucleotide adenylyltransferase; assay type: functional, Staphylococcus aureus subsp. aureus N315
[3] = Luminescence Cell-Based Dose Retest to Confirm Inhibitors of Cancer Stem Cells. [Related pubchem assays (depositor defined):AID2717, AID2721]; assay type: functional; details: Homo sapiens
[4] = AlphaScreen signal interference compounds, dose response, artefact control for ARNT-TACC3 interaction inhibitor project, biochemical, luminescence, cherry-pick (AID 651705); assay type: functional;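 further: AlphaScreen bead proximity signal that flags compounds interfering with the detection technology; potency reflects signal decrease which marks the compound as an assay artifact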
[5] = target: Interleukin-8 (Homo sapiens, UniProt P10145); assay: Dose Response confirmation of uHTS small molecule hits for cystic fibrosis induced NFkb Inhibitors in a PAF-induced IL8 counterscreen.; assay type: functional; details: read-out: IC50_Mean
Interleukin-8, sequence (P10145 whole entry): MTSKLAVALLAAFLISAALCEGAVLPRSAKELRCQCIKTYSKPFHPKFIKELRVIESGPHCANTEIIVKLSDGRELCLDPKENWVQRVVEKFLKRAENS

[6] = inhibitors of firefly luciferase expression or activity, dose response, H4 neuroglioma cells, luminescence (AID 1990); assay type: functional, cell-based
[7] = Luminescence Cell-Based Dose Response HTS to Identify Inhibitors of 5'UTR Stem-Loop Driven Prion Protein mRNA Translation in H4 Neuroglioblastoma Cells. [Related pubchem assays: 1827 (Project Summary), 1813 (Primary HTS)]; assay type: functional
[8] = inhibitors of SNCA 5'UTR-driven reporter translation, confirmation, H4 neuroglioma cells, luminescence (AID 1988); assay type: functional, cell-based
[9] = target: T2, Cysteine protease ATG4B (Homo sapiens, UniProt Q9Y4P1); assay type: functional;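 further: Fluorescence-based dose-response confirmation assay measuring inhibition of ATG4B activity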
T2 sequence (Q9Y4P1 whole entry): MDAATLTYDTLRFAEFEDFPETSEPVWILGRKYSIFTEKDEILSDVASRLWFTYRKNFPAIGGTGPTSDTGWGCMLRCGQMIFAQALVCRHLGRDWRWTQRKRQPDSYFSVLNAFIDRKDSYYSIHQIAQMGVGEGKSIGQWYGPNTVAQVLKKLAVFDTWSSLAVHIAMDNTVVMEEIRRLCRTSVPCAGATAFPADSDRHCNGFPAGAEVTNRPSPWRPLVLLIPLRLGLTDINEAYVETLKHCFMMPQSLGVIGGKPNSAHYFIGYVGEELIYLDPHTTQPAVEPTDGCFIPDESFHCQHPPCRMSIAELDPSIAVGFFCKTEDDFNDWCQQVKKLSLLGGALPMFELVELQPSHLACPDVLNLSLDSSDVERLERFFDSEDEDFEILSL

[10] = ZM109 Env clade C HIV-1 fusion inhibitors, dose response, HeLa effector, CEM target cells, luciferase, cherry-pick (AID 652058); assay type: functional, cell-based
[11] = inhibitors of clade B AD8 Env fusion, dose response, cell-based, cherry-pick (AID 652062); assay type: functional;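 further: luciferase signal from cell-cell fusion driven by HIV-1 clade B AD8 Env; potency is for inhibitors of fusion seen as a drop in luminescence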
[12] = inhibitors of HIV Env-driven cell fusion, dose response, cherry-pick (AID 652057); assay type: functional, cell-based
[13] = target: Phospholipase A2 (Homo sapiens, UniProt P04054); assay type: functional;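 further: confirmatory dose-response counterscreen on phospholipase A2, testing hits that came from an ultra-high-throughput screen for ATG4B inhibitors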
Phospholipase A2, sequence (P04054 whole entry): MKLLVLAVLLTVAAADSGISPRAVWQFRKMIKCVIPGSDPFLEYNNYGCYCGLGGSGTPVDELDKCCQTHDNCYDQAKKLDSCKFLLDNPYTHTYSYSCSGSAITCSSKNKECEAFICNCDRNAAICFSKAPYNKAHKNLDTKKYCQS

[14] = system: HEK293; assay: inhibitors of LMP1-driven NF-kB reporter, dose response, cell-based, HEK293, luciferase, cherry-pick (AID 588343); assay type: functional; details: Homo sapiens
[15] = off-target signal loss in HeLa-CEM21 co-culture – HeLa F-luc CTL cells, cherry-picked, counter-screen for HIV-1 Env fusion inhibitor project, dose response (AID 652040); assay type: functional, cell-based;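 further: potency for signal decrease marking cytotoxic or nonspecific inhibition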
[16] = system: H9c2; assay: cells; assay type: functional, cell-based; details: Rattus norvegicus, H9c2, Myocardium;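 further: confirmatory concentration-response retest of ultra-high-throughput screening hits for modulation of myocardial damage; cell death induced by hydrogen peroxide oxidative stress; compound pretreatment for 60 min then peroxide exposure for 2 h; potency is for protecting the cells against peroxide damage rather than for killing them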
[17] = target: Potassium voltage-gated channel subfamily KQT member 2 (Rattus norvegicus, UniProt O88943); assay: KCNQ2 potassium channel inhibitors, dose response, cell-based, automated electrophysiology, set II, rat KCNQ2 (AID 588637); assay type: functional
Potassium voltage-gated channel subfamily KQT member 2, sequence (O88943 whole entry): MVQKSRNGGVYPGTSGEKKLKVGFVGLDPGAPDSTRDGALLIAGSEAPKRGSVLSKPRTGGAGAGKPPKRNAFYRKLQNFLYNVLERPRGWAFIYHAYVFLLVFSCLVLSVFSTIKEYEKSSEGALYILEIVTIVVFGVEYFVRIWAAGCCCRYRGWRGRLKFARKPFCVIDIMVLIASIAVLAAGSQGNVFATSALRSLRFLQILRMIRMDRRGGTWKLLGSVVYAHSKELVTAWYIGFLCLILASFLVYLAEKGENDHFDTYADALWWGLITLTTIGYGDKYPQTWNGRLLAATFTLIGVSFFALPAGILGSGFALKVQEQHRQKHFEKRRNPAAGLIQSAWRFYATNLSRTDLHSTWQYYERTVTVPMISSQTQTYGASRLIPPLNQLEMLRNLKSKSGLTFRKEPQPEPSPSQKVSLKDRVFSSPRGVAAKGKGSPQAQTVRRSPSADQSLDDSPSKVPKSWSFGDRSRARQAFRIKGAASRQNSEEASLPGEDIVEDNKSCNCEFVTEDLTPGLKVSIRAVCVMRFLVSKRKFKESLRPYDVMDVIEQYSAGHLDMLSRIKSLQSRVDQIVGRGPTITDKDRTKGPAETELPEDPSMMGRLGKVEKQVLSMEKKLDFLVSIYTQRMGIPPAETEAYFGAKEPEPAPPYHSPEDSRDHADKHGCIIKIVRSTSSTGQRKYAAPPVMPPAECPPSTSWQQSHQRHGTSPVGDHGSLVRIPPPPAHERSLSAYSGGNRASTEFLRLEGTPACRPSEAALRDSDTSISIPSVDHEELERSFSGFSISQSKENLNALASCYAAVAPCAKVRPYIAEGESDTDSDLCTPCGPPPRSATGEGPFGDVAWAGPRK

[18] = target: DNA repair and recombination protein RAD54-like (Homo sapiens, UniProt Q92698); assay: inhibitors of human RAD54 branch migration, confirmation, biochemical, fluorescence, cherry-picked samples, dose series (AID 651657); assay type: functional
DNA repair and recombination protein RAD54-like, sequence (Q92698 whole entry, the tested form may be a part): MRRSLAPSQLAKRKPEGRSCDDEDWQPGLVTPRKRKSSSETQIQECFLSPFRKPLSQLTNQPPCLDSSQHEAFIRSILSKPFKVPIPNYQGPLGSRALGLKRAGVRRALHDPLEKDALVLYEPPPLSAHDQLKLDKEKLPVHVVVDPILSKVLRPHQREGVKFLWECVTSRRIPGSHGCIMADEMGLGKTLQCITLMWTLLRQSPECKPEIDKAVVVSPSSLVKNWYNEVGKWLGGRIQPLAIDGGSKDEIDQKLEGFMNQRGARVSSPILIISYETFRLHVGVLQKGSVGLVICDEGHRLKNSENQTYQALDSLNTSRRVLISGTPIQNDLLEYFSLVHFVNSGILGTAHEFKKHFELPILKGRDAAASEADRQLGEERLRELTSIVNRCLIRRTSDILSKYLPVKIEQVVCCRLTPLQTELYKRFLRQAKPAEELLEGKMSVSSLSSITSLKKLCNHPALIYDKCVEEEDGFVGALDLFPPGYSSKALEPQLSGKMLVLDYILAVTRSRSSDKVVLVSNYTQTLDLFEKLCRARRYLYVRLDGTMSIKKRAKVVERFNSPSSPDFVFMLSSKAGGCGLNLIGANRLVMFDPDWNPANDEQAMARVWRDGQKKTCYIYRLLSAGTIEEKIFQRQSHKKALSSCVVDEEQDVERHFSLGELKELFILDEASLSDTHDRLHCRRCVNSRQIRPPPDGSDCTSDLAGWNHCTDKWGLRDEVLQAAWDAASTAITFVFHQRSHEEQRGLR

[19] = Fluorescence-based cell-based high throughput dose response assay for inhibitors of the interaction of nucleotide-binding oligomerization domain containing 2 (NOD2) and the receptor-interacting serine-threonine kinase 2 (RIPK2).; assay type: functional; details: Homo sapiens
[20] = target: Beta Lactamase (Pseudomonas aeruginosa, UniProt Q932Y6); assay: beta-lactamase reporter inhibitor potency, dose response, artefact control for NOD2-RIPK2 interaction inhibitor project, BLA reporter cells, FRET fluorescence (AID 651552); assay type: functional, cell-based
Beta Lactamase, sequence (Q932Y6 whole entry): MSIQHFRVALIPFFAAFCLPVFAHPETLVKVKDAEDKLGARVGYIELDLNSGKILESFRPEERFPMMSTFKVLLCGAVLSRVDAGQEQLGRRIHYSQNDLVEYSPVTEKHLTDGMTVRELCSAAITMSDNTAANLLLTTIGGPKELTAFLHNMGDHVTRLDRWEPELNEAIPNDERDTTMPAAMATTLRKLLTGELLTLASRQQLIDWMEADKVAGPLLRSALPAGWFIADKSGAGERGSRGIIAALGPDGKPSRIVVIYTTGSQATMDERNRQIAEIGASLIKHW

[21] = target: T3, Sentrin-specific protease 6 (Homo sapiens, UniProt Q9GZR1); assay: SAR Analysis of small molecule inhibitors of Sentrin-specific protease 6 (SENP6) using a Luminescent assay. [Related pubchem assays (depositor defined):AID2582, AID2599]; assay type: functional
T3 sequence (Q9GZR1 whole entry): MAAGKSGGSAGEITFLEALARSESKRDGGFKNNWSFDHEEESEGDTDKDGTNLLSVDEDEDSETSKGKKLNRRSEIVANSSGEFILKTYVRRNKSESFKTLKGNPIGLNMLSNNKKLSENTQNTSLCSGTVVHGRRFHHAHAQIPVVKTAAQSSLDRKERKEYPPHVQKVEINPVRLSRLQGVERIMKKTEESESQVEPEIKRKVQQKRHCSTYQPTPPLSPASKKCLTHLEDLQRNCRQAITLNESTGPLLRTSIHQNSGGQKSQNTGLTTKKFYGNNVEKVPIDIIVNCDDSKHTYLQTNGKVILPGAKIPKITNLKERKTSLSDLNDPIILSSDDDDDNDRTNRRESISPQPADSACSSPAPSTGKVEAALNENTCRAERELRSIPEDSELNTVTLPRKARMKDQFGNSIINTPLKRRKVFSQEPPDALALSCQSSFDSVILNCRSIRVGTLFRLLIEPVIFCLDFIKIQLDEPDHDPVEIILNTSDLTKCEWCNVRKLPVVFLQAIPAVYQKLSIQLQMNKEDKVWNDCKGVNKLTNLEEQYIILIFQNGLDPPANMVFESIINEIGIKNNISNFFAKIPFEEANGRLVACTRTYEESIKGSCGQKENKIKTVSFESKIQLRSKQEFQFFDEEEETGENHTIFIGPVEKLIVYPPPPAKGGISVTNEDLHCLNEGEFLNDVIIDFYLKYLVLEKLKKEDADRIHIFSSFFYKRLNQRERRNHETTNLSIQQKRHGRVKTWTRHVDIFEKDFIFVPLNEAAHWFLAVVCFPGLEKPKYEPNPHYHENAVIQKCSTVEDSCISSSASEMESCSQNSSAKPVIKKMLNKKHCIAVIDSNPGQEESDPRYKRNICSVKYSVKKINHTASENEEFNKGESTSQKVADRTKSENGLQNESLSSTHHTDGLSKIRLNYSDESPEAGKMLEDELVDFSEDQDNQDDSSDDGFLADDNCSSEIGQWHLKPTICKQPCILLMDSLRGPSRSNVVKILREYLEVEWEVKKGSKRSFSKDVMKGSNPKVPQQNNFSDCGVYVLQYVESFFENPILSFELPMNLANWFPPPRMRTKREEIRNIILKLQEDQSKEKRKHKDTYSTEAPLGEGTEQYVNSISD

[22] = target: T4, Sentrin-specific protease 8 (Homo sapiens, UniProt Q96LD8); assay: SENP8 protease inhibitors, SAR follow-up, biochemical, luminescence (AID 504501); assay type: functional
T4 sequence (Q96LD8 whole entry): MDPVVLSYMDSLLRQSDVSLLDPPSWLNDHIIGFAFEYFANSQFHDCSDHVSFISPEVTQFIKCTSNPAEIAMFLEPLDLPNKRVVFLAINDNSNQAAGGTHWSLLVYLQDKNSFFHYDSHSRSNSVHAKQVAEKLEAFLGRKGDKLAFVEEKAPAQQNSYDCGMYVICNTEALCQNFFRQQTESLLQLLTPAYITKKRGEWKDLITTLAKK

[23] = target: T5, Caspase-3 (Homo sapiens, UniProt P42574); assay: SAR Analysis of small molecule inhibitors of Sentrin-specific proteases (SENPs) using a Caspase-3 Selectivity assay. [Related pubchem assays (depositor defined):AID2540, AID2599, AID434973, AID489001]; assay type: functional
T5 sequence (P42574 whole entry): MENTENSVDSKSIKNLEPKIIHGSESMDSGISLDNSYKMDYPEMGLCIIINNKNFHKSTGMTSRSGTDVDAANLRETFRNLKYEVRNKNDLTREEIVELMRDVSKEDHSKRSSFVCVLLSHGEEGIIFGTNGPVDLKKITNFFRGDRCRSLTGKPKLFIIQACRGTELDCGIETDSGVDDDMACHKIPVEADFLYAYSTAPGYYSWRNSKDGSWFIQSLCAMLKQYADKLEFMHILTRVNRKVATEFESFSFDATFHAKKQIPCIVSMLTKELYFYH

[24] = target: T6, Sentrin-specific protease 7 (Homo sapiens, UniProt Q9BQF6); assay: SENP7 protease inhibitors, SAR follow-up, biochemical, luminescence (AID 504497); assay type: functional
T6 sequence (Q9BQF6 whole entry): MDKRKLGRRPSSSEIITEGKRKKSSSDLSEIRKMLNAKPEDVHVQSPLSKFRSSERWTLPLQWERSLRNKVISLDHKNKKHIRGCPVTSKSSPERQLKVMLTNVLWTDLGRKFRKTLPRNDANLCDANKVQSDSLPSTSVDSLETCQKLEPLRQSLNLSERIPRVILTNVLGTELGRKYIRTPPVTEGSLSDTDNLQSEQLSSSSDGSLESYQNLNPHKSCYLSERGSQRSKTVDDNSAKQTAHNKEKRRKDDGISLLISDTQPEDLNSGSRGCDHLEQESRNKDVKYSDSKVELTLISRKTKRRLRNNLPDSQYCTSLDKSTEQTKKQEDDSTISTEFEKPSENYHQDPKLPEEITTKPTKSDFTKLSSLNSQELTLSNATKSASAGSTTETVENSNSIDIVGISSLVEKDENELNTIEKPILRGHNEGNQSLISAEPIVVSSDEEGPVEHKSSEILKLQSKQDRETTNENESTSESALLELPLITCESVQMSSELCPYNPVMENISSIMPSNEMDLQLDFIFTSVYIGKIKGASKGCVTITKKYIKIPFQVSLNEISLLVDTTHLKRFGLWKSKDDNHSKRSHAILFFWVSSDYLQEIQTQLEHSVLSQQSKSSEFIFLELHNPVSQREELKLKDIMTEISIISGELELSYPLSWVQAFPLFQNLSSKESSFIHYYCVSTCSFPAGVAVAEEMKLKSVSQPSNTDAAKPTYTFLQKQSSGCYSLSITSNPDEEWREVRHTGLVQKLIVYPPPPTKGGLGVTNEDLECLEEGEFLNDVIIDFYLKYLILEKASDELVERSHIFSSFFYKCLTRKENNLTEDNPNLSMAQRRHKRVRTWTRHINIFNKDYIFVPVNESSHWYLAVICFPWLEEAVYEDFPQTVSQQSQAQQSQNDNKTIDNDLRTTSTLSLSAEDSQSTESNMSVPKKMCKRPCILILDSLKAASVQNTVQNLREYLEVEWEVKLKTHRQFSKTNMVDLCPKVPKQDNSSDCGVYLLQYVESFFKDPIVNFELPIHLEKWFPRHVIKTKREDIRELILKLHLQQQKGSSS

[25] = target: Mitochondrial peptide methionine sulfoxide reductase (Bos taurus, UniProt P54149); assay type: functional;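 further: absorbance read-out, biochemical high-throughput dose-response screen for MsrA inhibitors, confirmatory; recombinant bovine MsrA coupled to E. coli TrxB with NADPH and selenocystamine; potency is for inhibitors of MsrA activity on DMSO substrate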
Mitochondrial peptide methionine sulfoxide reductase, sequence (P54149 whole entry): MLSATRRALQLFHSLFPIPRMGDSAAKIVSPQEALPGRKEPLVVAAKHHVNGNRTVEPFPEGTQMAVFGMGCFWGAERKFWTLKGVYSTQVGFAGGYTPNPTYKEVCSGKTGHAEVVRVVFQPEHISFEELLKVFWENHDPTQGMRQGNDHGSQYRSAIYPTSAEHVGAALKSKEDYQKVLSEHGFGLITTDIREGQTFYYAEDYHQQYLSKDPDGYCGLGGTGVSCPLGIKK

[26] = target: Dual specificity tyrosine-phosphorylation-regulated kinase 1A (Rattus norvegicus, UniProt Q63470); assay type: biochemical, Homo sapiens
[27] = target: Cytochrome P450 2D6 (Homo sapiens, UniProt P10635);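 further: CYP2D6 member of a cytochrome P450 panel assay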
Cytochrome P450 2D6, sequence (P10635 whole entry): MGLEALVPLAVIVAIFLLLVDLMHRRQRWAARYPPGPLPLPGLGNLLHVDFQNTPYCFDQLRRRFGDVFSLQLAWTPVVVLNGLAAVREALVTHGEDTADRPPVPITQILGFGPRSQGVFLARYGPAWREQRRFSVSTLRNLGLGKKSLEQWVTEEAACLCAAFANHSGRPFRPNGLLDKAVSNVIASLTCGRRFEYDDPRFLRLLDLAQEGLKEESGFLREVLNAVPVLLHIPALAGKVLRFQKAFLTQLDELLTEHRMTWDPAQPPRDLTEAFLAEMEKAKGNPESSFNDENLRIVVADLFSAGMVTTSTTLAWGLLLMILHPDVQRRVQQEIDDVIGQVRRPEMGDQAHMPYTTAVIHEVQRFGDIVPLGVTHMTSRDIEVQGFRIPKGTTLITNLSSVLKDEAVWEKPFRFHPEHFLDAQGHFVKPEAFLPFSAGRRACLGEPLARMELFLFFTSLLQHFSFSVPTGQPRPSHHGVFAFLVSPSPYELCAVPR

T1 sequence (P65502 whole entry): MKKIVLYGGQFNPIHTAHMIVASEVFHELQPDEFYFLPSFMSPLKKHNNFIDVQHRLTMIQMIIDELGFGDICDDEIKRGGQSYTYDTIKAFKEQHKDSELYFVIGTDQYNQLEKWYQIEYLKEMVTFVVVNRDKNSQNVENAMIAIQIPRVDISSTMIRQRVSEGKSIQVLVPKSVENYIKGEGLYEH

SMILES: Nc1nc(COc2ccccc2C=O)nc(Nc2ccccc2)n1
- IC50 [1]: 52.1 µM (active)
- IC50 [2]: 36.7 µM (active)

SMILES: O=C(NC12CC3CC(CC(C3)C1)C2)c1ccc(-c2ccccc2Cl)o1
- AC50 [3]: 3.35 µM (active)
- AC50 [4]: 80.2 µM (active)

SMILES: NC(=O)c1sc2nc3c(c(-c4ccccc4)c2c1N)CCC3
- IC50 [5]: 15.3 µM (inactive)
- EC50 [6]: 25.6 µM (active)
- EC50 [7]: 6.39 µM (active)
- EC50 [8]: 16.6 µM (active)
- IC50 [9]: 12.3 µM (active)
- AC50 [10]: 0.736 µM (active)
- AC50 [11]: 1.55 µM (active)
- AC50 [12]: 1.87 µM (active)
- IC50 [13]: 8.38 µM (active)
- AC50 [14]: 14.6 µM (active)
- AC50 [15]: 10.2 µM (active)

SMILES: COc1cc(-c2cc(C(=O)Nc3ccccc3N3CCOCC3)c3ccccc3n2)cc(OC)c1OC
- IC50 [16]: > 79 µM (inactive)
- IC50 [17]: 0.11 µM (active)

SMILES: CCOC(=O)c1cnc2c(C)c(Cl)ccc2c1NCCCN1CCOCC1
- AC50 [18]: 8.62 µM (active)

SMILES: O=C1N/C(=C/c2ccc(N3CCOCC3)o2)C(=O)N1c1cccc(Cl)c1
- IC50 [19]: 7.65 µM (active)
- IC50 [20]: 21.3 µM (inactive)

SMILES: COc1ccc(C2CCCN2C(=O)c2sc3ccccc3c2Cl)cc1OC (stereo not given)
- IC50 [21]: > 99 µM (inactive)
- IC50 [22]: > 99 µM (inactive)
- IC50 [23]: > 99 µM (inactive)
- IC50 [24]: > 99 µM (inactive)

SMILES: Cc1cccc(N/N=C/c2cn(Cc3ccccc3)c3ccccc23)c1
- IC50 [21]: > 99 µM (inactive)
- IC50 [22]: > 99 µM (inactive)
- IC50 [23]: > 99 µM (inactive)
- IC50 [24]: > 99 µM (inactive)

SMILES: Cc1ccccc1NC(=O)c1ccccc1N(C)S(=O)(=O)c1ccccc1
- IC50 [17]: 0.0922 µM (active)

SMILES: COc1ccc(Nc2nnc(-c3ccc(C(N)=O)cc3)c3ccccc23)cc1
- AC50 [4]: 104 µM (active)

SMILES: COc1cccc2c(SCC(=O)N/N=C/c3ccccc3)cc(C)nc12
- IC50 [5]: 11.3 µM (inactive)

SMILES: Cc1cccc(/N=c2\oc3cc(O)ccc3cc2C(N)=O)c1
- IC50 [25]: 155 µM (inactive)

SMILES: COc1cc2c(cc1O)C[C@H]1c3c(cc(O)c(OC)c3-2)CCN1C [BOLDINE]
- AC50 [26]: 4.84 µM (active)
- AC50 [27]: 6.31 µM (inconclusive)
- IC50 [25]: 47.8 µM (inactive)
